Consider 8 compounds from patent US20070196421A1, “Soft tissue implants and drug combination compositions, and use thereof” (priority 2005, published 2007).

For data set [1] the following is noted: in vivo; cited from earlier work.
The conditions of data set [2]: in vivo; cited from earlier work. This is another data set of the same source.
The subject of a further data set is AP1. Briefly: AP1 activation. The data set is classed as cell-based.
In another data set the test system is NFkB. Briefly: NFkB activation. The data set is classed as cell-based.
Another data set deals with glucocorticoid receptor. As to the kind of experiment: glucocorticoid receptor trafficking (mechanism study). The data set is classed as cell-based.
A further data set has as its system JNK. As to the kind of experiment: JNK activation. Format: cell-based.
The next data set has as its system ERK. Briefly: ERK activation. The data set is classed as cell-based.
Data set [3] concerns GRE reporter plasmid in T cells. Briefly: transactivation of a transfected GRE reporter plasmid in T cells. The data set is classed as cell-based.
Another data set deals with p38. As to the kind of experiment: p38 activation. The data set is classed as cell-based.
Data set [4] concerns carrageenan-induced paw edema. As to the kind of experiment: Rat carrageenan-induced paw edema model: paw swelling. The note with it: 2.26 mg/kg, local injection in paw at T-1 hr, Tmax = 6 hrs. The data set is classed as in vivo. On the procedure:
(§1) A dose-range finding study was performed to determine the anti-inflammatory activity of various ratios of methyl prednisolone acetate and amoxapine in a rat carrageenan-induced paw edema model. […] The molar ratio of methyl prednisolone acetate to amoxapine ranged from 1:1 to 1:300, using total doses of methyl prednisolone acetate of 0.01, 0.03 or 0.1 mg/kg.
(§2) The test agent (a combination of methyl prednisolone acetate and amoxapine), vehicle control, or reference agents (methyl prednisolone acetate, amoxapine, or Depo-Medrol®) were administered in the left hind foot pad of rats. After 60 minutes, paw edema was induced by injection of 100 μl of 1% carrageenan in the same foot pad. The paw volume was measured with a water displacement plethysmometer immediately prior to test agent injection (T−1h), at the time of carrageenan injection (T0h), and at T6h. Animals were euthanized by carbon dioxide inhalation. Paw tissue samples were collected and flash frozen in liquid nitrogen. Samples were assayed for TNF-α by enzyme-linked immunoassay (ELISA).
On the technique in general: The carrageenan paw model is a standard test of acute inflammation.

Another data set relates to TNF-α. As to the kind of experiment: Rat carrageenan-induced paw edema model: TNF-α in paw tissue by ELISA. Format: in vivo. The note with it: 2.26 mg/kg. On the procedure:
as §1, §2

Another data set deals with NFAT. As to the kind of experiment: NFAT activation, translocation and transactivation. Format: cell-based.
In a further data set the test system is joint swelling. As to the kind of experiment: chronic in vivo model of inflammation / chronic arthritis model. The note with it: agent alone (prednisolone at reduced dose).
Data set [5] concerns LPS-induced TNF-α production. As to the kind of experiment: acute in vivo model of inflammation (LPS-induced TNF-α release). The note with it: agent alone (prednisolone at reduced dose).
For data set [6] the following is noted: water; cited from earlier work.
The conditions of data set [7]: 200 mg/day orally; cited from earlier work.
A further data set has as its system mast cells. The conditions noted are these: cited from earlier work.
A further data set has as its system eosinophil activation. The conditions noted are these: cited from earlier work.
The next data set concerns collagenase (MMP-1) mRNA. Briefly: IL-1 induced collagenase (MMP-1) mRNA expression in chondrocytes, Northern blot. The note with it: 10^−5 M, 24 hours pretreatment, IL-1β 20 ng/ml.
Data set [8] relates to AP-1 DNA binding activity. Briefly: IL-1 induced AP-1 DNA binding activity, gel mobility shift assay of chondrocyte extracts. Format: cell-based. The note with it: chondrocyte lysates, pretreated 10^−7 to 10^−5 M for 24 hours, IL-1β 20 ng/ml. On the procedure:
Binding activity was assayed with a radiolabeled human AP-1 sequence probe and gel mobility shift assay. Extracts from chondrocytes untreated or treated with various amounts of paclitaxel (10^−7 to 10^−5 M) followed by IL-1β (20 ng/ml) were incubated with excess probe on ice for 30 minutes, followed by non-denaturing gel electrophoresis. The “com” lane contains excess unlabeled AP-1 oligonucleotide. The results shown are representative of three independent experiments.

The next data set concerns AP-1. As to the kind of experiment: IL-1 induced AP-1 binding activity in chondrocyte lysates (FIG. 1C). The data set is classed as cell-based. The note with it: lysates from chondrocytes pretreated with paclitaxel.
The subject of a further data set is stromelysin (MMP-3) mRNA. Briefly: IL-1 induced stromelysin (MMP-3) mRNA expression in chondrocytes, Northern blot. The note with it: 10^−5 M, 24 hours pretreatment, IL-1β 20 ng/ml.
Another data set deals with collagenase. As to the kind of experiment: IL-1 induced collagenase RNA levels in chondrocytes (FIG. 1D). The data set is classed as cell-based. The conditions noted are these: pretreatment.
For another data set, the system named is stromelysin. Briefly: IL-1 induced stromelysin RNA levels in chondrocytes (FIG. 1D). Format: cell-based. The note with it: pretreatment.
Data set [9] concerns AP-1 transcriptional activity. As to the kind of experiment: IL-1 stimulated AP-1 transcriptional activity (AP-1 driven CAT reporter gene) in chondrocytes. Format: cell-based. The conditions noted are these: transfected chondrocytes, IL-1 50 ng/ml, 24 hours, paclitaxel 10^−7 to 10^−5 M. On the procedure:
Chondrocytes were transfected with constructs containing an AP-1 driven CAT reporter gene, and stimulated with IL-1, IL-1 (50 ng/ml) was added and incubated for 24 hours in the absence and presence of paclitaxel at various concentrations. […] The data noted with an asterisk (*) have significance compared with IL-1-induced CAT activity according to a t-test, P<0.05. The results shown are representative of three independent experiments.
A general note: A reporter such as luciferase makes a cellular process visible.

In data set [10] the target is protein tyrosine phosphatase 1B (PTP1B) (Homo sapiens, UniProt P18031). The note with it: cited from earlier work.
Data set [11] concerns phosphatases of regenerating liver (PRL). The note with it: cited from earlier work.
A further data set deals with endo-exonuclease. The note with it: cited from earlier work.

Sequence of protein tyrosine phosphatase 1B (PTP1B) (P18031 whole entry): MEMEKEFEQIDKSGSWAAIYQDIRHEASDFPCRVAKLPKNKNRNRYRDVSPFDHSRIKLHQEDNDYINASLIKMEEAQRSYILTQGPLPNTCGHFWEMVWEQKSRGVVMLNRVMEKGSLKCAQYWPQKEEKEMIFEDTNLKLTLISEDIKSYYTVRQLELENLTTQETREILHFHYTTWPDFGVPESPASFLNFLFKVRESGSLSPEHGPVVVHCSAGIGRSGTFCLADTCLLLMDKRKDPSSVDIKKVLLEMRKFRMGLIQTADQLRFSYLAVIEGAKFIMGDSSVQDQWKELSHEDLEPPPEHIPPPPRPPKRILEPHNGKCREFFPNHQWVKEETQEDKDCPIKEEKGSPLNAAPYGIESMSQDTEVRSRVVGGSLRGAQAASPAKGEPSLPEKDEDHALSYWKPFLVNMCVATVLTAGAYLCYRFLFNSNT

Take `CN(C)/N=N/c1[nH]cnc1C(N)=O` [Dacarbazine, dacarbazine]: the “absorption from the GI tract” value in data set [1] is “poorly absorbed”.

For the compound `O=C(Nc1ccc([N+](=O)[O-])cc1Cl)c1cc(Cl)ccc1O` [Niclosamide, niclosamide], in data set [2], the toxicity in mammals entry is reported as “very low toxicity”.

Regarding `Clc1ccc2c(c1)C(N1CCNCC1)=Nc1ccccc1O2` [amoxapine], the AP1 activation entry in the data set on AP1 was “partially inhibits”. Further, the NFkB activation result in the data set on NFkB is listed as “partially inhibits”. Also, the glucocorticoid receptor trafficking entry with glucocorticoid receptor is “does not promote”. The JNK activation result in the data set on JNK is “Inhibition”. For the same compound, the ERK activation entry in the data set on ERK is listed as “unaffected”. Further, the “potentiation of prednisolone's ability to transactivate a GRE reporter plasmid” value in [3] was “does not potentiate”. Moreover, the p38 activation entry in the data set with p38 is listed as “Inhibition”. The “Edema ± SEM” value in data set [4] is “not significantly different from the vehicle treatment”; in data set [4] (listed as Amoxapine) it was 38.1 ± 3.3%. Further, the “TNF-α ± SEM” value with TNF-α is 32.6 ± 10.1 pg/g. In addition, in the data set with NFAT, the “NFAT activation, translocation and transactivation” value is reported as “block”. The “effect of the single agents in the chronic model” value with joint swelling is recorded as “modest or no benefit”. In addition, in data set [5], the “effect of the single agents in the acute / LPS model” value is on record as “modest or no benefit”.

In the case of `CC(=O)N1CCN(c2ccc(OCC3COC(Cn4ccnc4)(c4ccc(Cl)cc4Cl)O3)cc2)CC1` (centres unmarked) [ketoconazole], in data set [6], the “solubility in water (in words)” value is “essentially insoluble”. In [7], the serum concentration result is “about 3.2 micrograms”.

For the compound `CCOC(=O)N1CCC(=C2c3ccc(Cl)cc3CCc3cccnc32)CC1` [loratadine, Loratadine], the “inhibition of mast cells” value in the data set on mast cells is reported as “inhibits”. Also, the “inhibition of eosinophil activation” value with eosinophil activation is on record as “inhibits”.

Turning to `CC(=O)O[C@H]1C(=O)[C@@]2(C)[C@H]([C@H](OC(=O)c3ccccc3)[C@]3(O)C[C@H](OC(=O)[C@H](O)[C@@H](NC(=O)c4ccccc4)c4ccccc4)C(C)=C1C3(C)C)[C@]1(OC(C)=O)CO[C@@H]1C[C@@H]2O` [paclitaxel], in the data set on collagenase (MMP-1) mRNA, the “collagenase mRNA level” value is on record as “complete inhibition”. In data set [8], the “IL-1 induced AP-1 binding activity” value was “decreased”. Further, the “IL-1 induced binding activity” value in the data set with AP-1 is “decreased”. Moreover, in the data set on stromelysin (MMP-3) mRNA, the “stromelysin mRNA level” value is “complete inhibition”. In addition, the “IL-1 induction of collagenase RNA levels” value in the data set with collagenase is “can be inhibited”. Moreover, the “IL-1 induction of stromelysin RNA levels” value in the data set with stromelysin is reported as “can be inhibited”. In addition, the “IL-1 induced AP-1 reporter gene CAT activity” value in [9] is “reduced IL-1 induced AP-1 reporter gene CAT activity”.

In the case of `Fc1ccc([C@@H]2CCNC[C@H]2COc2ccc3c(c2)OCO3)cc1` [paroxetine], in the data set on AP1, the AP1 activation result was “inhibits”. Further, the glucocorticoid receptor trafficking result in the data set with glucocorticoid receptor is on record as “does not promote”. Further, in the data set with JNK, the JNK activation entry is listed as “inhibition”. Besides, in data set [3], the “potentiation of prednisolone's ability to transactivate a GRE reporter plasmid” value was “does not promote glucocorticoid receptor trafficking or potentiate”. Besides, the p38 activation entry in the data set with p38 was “inhibition”. In addition, in the data set on NFAT, the “NFAT activation, translocation and transactivation” value is reported as “represses”.

As for `N=C(N)c1ccc(OCCCCCOc2ccc(C(=N)N)cc2)cc1` [pentamidine], in data set [10], the “inhibition of protein tyrosine phosphatase 1B (PTP1B)” value is recorded as “effective inhibitor”. In addition, the “inhibition of the oncogenic phosphatases of regenerating liver (PRL)” value in data set [11] is “potent inhibitor”. For the same compound, the “inhibition of the activity of endo-exonuclease” value in the data set with endo-exonuclease is “inhibit”.
